The values below come from patent US10435375B2, “CXCR4 chemokine receptor modulators” (NORTHWESTERN UNIVERSITY, priority 2015, dated 2019).

“Also recorded” adds a separate entry of the source.

The target in assay [1] is T1, CXCR4 (Homo sapiens, UniProt P61073). The assay is described as follows: Calcium imaging ((Ca)i mobilization) assay, fura-2, C8161 melanoma cells. As to conditions: for compound's (Ca)i response in presence of CXCR4 antagonist AMD3100: AMD3100 1 μM where stated; for own (Ca)i response (agonist effect): compounds 10 μM where stated, SDF-1 100 nM; for Ca^2+ Assay: Table 1, calcium imaging behavior; for Pharmacology: Table 2, agonist or antagonist; for effect on SDF-1-induced (Ca)i response: test compounds 10 μM; for IC50: multiple concentrations, dose-response, read-out: estimated IC50 (antagonism of SDF-1 (Ca)i response). Also on record: human melanoma cell line C8161 was initially used, which expresses numerous human CXCR4 receptors; endogenous in cells; host or cells: C8161 human melanoma cells. The class given is cell-based. An excerpt: The initial assay for examining the activity of different molecules was based on the fact that activation of CXCR4 receptors produces an increase in the intracellular free Ca^2+ concentration (Ca)i. This signal can easily be observed using a fluorescent Ca^2+ sensing dye such as fura-2. The quantitative nature of this assay makes it ideal for screening purposes. Moreover, the assay can also distinguish potential antagonists from potential agonists. The aggressive human melanoma cell line C8161 was initially used, which expresses numerous human CXCR4 receptors and produces strong (Ca)I signals when stimulated with SDF-1 (FIG. 3). In the assay, cells were usually stimulated twice with SDF-1. […] To test a drug, the compound in question was usually added prior to the second stimulation with SDF-1. At this point it was possible to observe whether the compound itself acted as an agonist by giving its own response or if it reduced the magnitude of the second response to SDF-1. […] Each of the four antagonists were then assayed at multiple concentrations to obtain a dose-response relationship and an estimated IC50. Antagonists NUCC-388, 397, 392, and 51420 had IC50 values of 0.3 μM, 3 μM, 1 μM, and 1 μM respectively.
T1 sequence (P61073 whole entry): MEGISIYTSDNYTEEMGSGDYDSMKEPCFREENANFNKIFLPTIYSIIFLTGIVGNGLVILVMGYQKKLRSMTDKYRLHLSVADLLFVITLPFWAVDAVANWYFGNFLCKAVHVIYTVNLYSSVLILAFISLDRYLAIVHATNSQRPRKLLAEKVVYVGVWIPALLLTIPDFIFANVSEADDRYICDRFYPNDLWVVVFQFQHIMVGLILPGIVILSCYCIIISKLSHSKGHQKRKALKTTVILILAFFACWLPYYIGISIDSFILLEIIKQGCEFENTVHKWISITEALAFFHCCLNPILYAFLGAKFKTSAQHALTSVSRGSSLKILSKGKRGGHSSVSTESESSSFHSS

Assay [2] concerns the target T1, CXCR4. The assay is described as follows: (Ca)i mobilization assay using CXCR4 expressing U87 cells. The class given is cell-based. Details: host or cells: U87 glioblastoma cells.
In another assay the target is T2, CXCR4-YFP (Homo sapiens, UniProt P61073).
T2 construct: expressed in transfected cells; host or cells: HEK293 cells
T2 sequence (P61073 whole entry): as above
The assay is described as follows: Internalization of YFP-tagged CXCR4 receptors in HEK293 cells. Conditions: for inhibition of NUCC-390-induced CXCR4-YFP internalization: AMD3100 1 μM. The class given is cell-based.

For the next assay, the system named is C8161 cells. The assay is described as follows: Chemotaxis of C8161 cells, Boyden chamber assay. In kind it is cell-based, human. As to conditions: SDF-1 100 nM, NUCC-390 10 μM, p<0.01, n=6. An excerpt:
Chemokines are well known for their ability to stimulate chemotaxis of leukocytes and stem cells. In order to further establish the biological activity of the CXCR4 agonists, the ability of SDF-1 and NUCC-390 to produce chemotaxis of C8161 cells was compared using a Boyden chamber assay.

Assay [3] has as its target T1, CXCR4. The assay is described as follows: ERK activation (pERK, Western blot) in C8161 cells. The class given is cell-based. Details: human melanoma cell line C8161 was initially used, which expresses numerous human CXCR4 receptors; endogenous in cells; host or cells: C8161 human melanoma cells. As to conditions: SDF-1 100 nM, NUCC-390 10 μM, 30 min. An excerpt:
To further explore the agonist potential of compound NUCC-390, changes in signaling downstream of CXCR4 were examined. For these experiments, lysates were collected from treated C8161 cells and analyzed them using Western blot. […] That drug NUCC-390 has the capability of stimulating signaling activity downstream of CXCR4 receptors further supports the observation that NUCC-390 acts as a CXCR4 agonist.
(In general: A western blot detects proteins with antibodies after separation by electrophoresis.)

Where [4] appears, read: C8161 cells, listed as NUCC-398.

For the compound `CCCn1nc(C(=O)N2CCCCC2)c2c1CCC(NCCCN1CCOCC1)C2` (stereo not drawn) [NUCC-0054127], at CXCR4 [1] (C8161 cells), the “compound's (Ca)i response in presence of CXCR4 antagonist AMD3100” value (“compound's (Ca)i response in presence” for short) was “inhibited by AMD3100” and the “own (Ca)i response (agonist effect)” value is on record as “robust agonist activity”. In addition, at CXCR4 [1], the “Ca^2+ Assay” value is on record as “Agonist” and the Pharmacology result is “Agonist”.

Consider `COCCn1c(C(=O)OC)c(NC(=O)CCc2ccccc2)c2cc(NCCC(C)c3ccccc3)cnc21` (stereo not drawn) [NUCC-0000393], for which the Pharmacology result at CXCR4 [1] is given as “Agonist”.

For `CCCn1nc(C(=O)N(C)Cc2ccccc2)c2c1CCC(NCc1ccc(F)cc1)C2` (stereo not drawn) [NUCC-0176303], the “own (Ca)i response (agonist effect)” value on CXCR4 [1] (C8161 cells) is given as “robust calcium response”. At CXCR4 [1], the Pharmacology entry is listed as “Agonist”.

Regarding `CCCn1nc(C(=O)N2CCCCC2)c2c1CCC(NCc1ccc(F)cc1)C2` (stereo not drawn) [NUCC-0176306], on CXCR4 [1] (C8161 cells), the “compound's (Ca)i response in presence” value is reported as “prevented calcium signaling” and the “own (Ca)i response (agonist effect)” value is recorded as “robust calcium response”. In addition, at CXCR4 [1], the Pharmacology entry is recorded as “Agonist”.

On to `CCCn1nc(C(=O)N(C)C)c2c1CCC(NCCc1cccnc1)C2` (stereo not drawn) [NUCC-0176308], for which, at CXCR4 [1] (C8161 cells), the “compound's (Ca)i response in presence” value was “prevented calcium signaling” and the “own (Ca)i response (agonist effect)” value is “robust calcium response”. For the same compound, on CXCR4 [1], the Pharmacology entry is “Agonist”.

For `COCCNC(=O)c1nn(CCC(C)C)c2c1CN(Cc1ncc[nH]1)CC2` [NUCC-0000398, 5-((1H-imidazol-2-yl)methyl)-1-isopentyl-N-(2-methoxyethyl)-4,5,6,7-tetrahydro-1H-pyrazolo(4,3-c)pyridine-3-carboxamide], on CXCR4 [1] (setting [4]), the “compound's (Ca)i response in presence” value was “completely inhibited; also recorded: inhibited by AMD3100” and the “own (Ca)i response (agonist effect)” value was “produced their own response; also recorded: robust agonist activity; also recorded: Agonist effects”. At CXCR4 [1], the “Ca^2+ Assay” value is recorded as “Agonist” and the Pharmacology entry was “Agonist”.

Take `CCCn1nc(C(=O)N(C)C)c2c1CCC(NCCCN1CCCC1=O)C2` (stereo not drawn) [NUCC-0176311]: the “own (Ca)i response (agonist effect)” value on CXCR4 [1] (C8161 cells) is given as “robust calcium response”. Moreover, the Pharmacology entry on CXCR4 [1] was “Agonist”.

Turning to `Cn1nc(C(=O)N2CCCCC2)c2c1CCC(NCCCN1CCOCC1)C2` (stereo not drawn) [NUCC-0176288], the “own (Ca)i response (agonist effect)” value at CXCR4 [2] was “robust calcium response”. Also, the “effect on SDF-1-induced (Ca)i response” value at CXCR4 [1] (C8161 cells) was “blocks the effect of SDF-1”. In addition, the Pharmacology result on CXCR4 [1] was “Antagonist”.

As to `c1cc(CN2CCCNCCNCCCNCC2)ccc1CN1CCCNCCNCCCNCC1` [AMD3100, reference compound], the “inhibition of NUCC-390-induced CXCR4-YFP internalization” value on CXCR4-YFP was “blocks internalization”; on CXCR4-YFP (listed as AMD-3100), “completely inhibited”. At CXCR4 [1] (C8161 cells), the “effect on SDF-1-induced (Ca)i response” value is listed as “completely blocked stimulation with SDF-1; also recorded: blocked the effects of SDF-1”.

In the case of `COC(=O)c1c(NC(=O)[C@H]2CCOC2)c2cc(NC[C@H](C)Cc3ccc4c(c3)OCO4)cnc2n1CCCc1ccccc1` [NUCC-0000392], at CXCR4 [1], the “Ca^2+ Assay” value was “Antagonist”.

Regarding `Cn1nc(C(=O)N2CCCCC2)c2c1CCC(NCc1ccc(F)cc1)C2` (stereo not drawn) [NUCC-0176290], at CXCR4 [1] (C8161 cells), the “own (Ca)i response (agonist effect)” value is given as “robust calcium response” and the “effect on SDF-1-induced (Ca)i response” value is listed as “blocks the effect of SDF-1”. In addition, the Pharmacology result on CXCR4 [1] is on record as “Antagonist”.

In the case of “SDF-1: cognate agonist for CXCR4, the 93 amino acid protein CXCL12 (SDF-1)”, the chemotaxis result in the assay on C8161 cells was “robust chemotactic activity”. In addition, the CXCR4-YFP receptor internalization entry with CXCR4-YFP (2 hours, SDF-1 100 nM, NUCC-390 10 μM) was “pronounced internalization of CXCR4-YFP; also recorded: causes most of the CXCR4 receptor to become internalized”. Besides, the “level of phosphorylated ERK (pERK)” value with CXCR4 [3] is given as “increased levels of phosphorylated ERK; also recorded: Increase in pERK”. Also, the “own (Ca)i response (agonist effect)” value with CXCR4 [1] (C8161 cells) is “two strong (Ca)i responses”.

Regarding `CCCn1nc(C(=O)N(C)Cc2ccccc2)c2c1CCC(NCCc1ccncc1)C2` (stereo not drawn) [NUCC-0176299], the “own (Ca)i response (agonist effect)” value at CXCR4 [2] is on record as “robust calcium response”. Moreover, the “effect on SDF-1-induced (Ca)i response” value on CXCR4 [1] (C8161 cells) is “blocks the effect of SDF-1”. Further, the Pharmacology entry on CXCR4 [1] is listed as “Antagonist”.

Turning to `Cc1ncsc1CCn1nc(C(=O)NC2CC2)c2c1CCN(Cc1ccc3c(c1)OCO3)C2` [NUCC-0000387], on CXCR4 [1], the Pharmacology entry is recorded as “Agonist”.

In the case of `CCCn1nc(C(=O)N2CCCCC2)c2c1CCC(NCCCN1CCCC1=O)C2` (stereo not drawn) [NUCC-0054120, 1-(3-((3-(Piperidine-1-carbonyl)-1-propyl-4,5,6,7-tetrahydro-1H-indazol-5-yl)amino)propyl)pyrrolidin-2-one], at CXCR4 [1] (C8161 cells), the IC50 (usually the concentration at which inhibition is half-maximal) was 1000 nM and the “effect on SDF-1-induced (Ca)i response” value is on record as “antagonized the effects of SDF-1”. Moreover, on CXCR4 [1], the “Ca^2+ Assay” value is given as “Agonist” and the Pharmacology result was “Antagonist”.

With `CCCn1nc(C(=O)N(C)Cc2ccccc2)c2c1CCC(NCCCN1CCOCC1)C2` (stereo not drawn) [NUCC-0176301], on CXCR4 [1] (C8161 cells), the “compound's (Ca)i response in presence” value is “prevented calcium signaling” and the “own (Ca)i response (agonist effect)” value was “robust calcium response”. Also, the Pharmacology entry at CXCR4 [1] was “Agonist”.

Turning to `COC(=O)c1c(NC(=O)C2CCOC2)c2cc(NCC(C)Cc3ccc4c(c3)OCO4)cnc2n1CCCc1ccccc1` (stereo not drawn) [NUCC-0000392], on CXCR4 [1] (C8161 cells), the IC50 was 1000 nM and the “effect on SDF-1-induced (Ca)i response” value is “antagonized the effects of SDF-1”. For the same compound, the Pharmacology result at CXCR4 [1] was “Antagonist”.

Regarding `CN(C)CCNC1CCc2c(c(C(=O)N(C)Cc3ccccc3)nn2C)C1` (stereo not drawn) [NUCC-0000388], at CXCR4-YFP, the “inhibition of NUCC-390-induced CXCR4-YFP internalization” value is given as “completely inhibited”. Also, at CXCR4 [1] (C8161 cells), the “inhibition of NUCC-390-induced (Ca)i response” value is on record as “inhibited” and the IC50 was 300 nM. At CXCR4 [1] (C8161 cells, listed as NUCC-388), the “effect on SDF-1-induced (Ca)i response” value is “antagonized the effects of SDF-1; also recorded: blocks the effect of SDF-1; also recorded: completely inhibited the second addition of SDF-1”. For the same compound, on CXCR4 [1], the “Ca^2+ Assay” value was “Antagonist” and the Pharmacology entry was “Antagonist”.

As for `CCCn1nc(C(=O)N2CCCCC2)c2c1CCC(NCCc1cccnc1)C2` (stereo not drawn) [NUCC-0054118, Piperidin-1-yl(1-propyl-5-((2-(pyridin-3-yl)ethyl)amino)-4,5,6,7-tetrahydro-1H-indazol-3-yl)methanone], at CXCR4 [1] (C8161 cells), the “compound's (Ca)i response in presence” value was “inhibited by AMD3100” and the “own (Ca)i response (agonist effect)” value is reported as “robust agonist activity”. For the same compound, at CXCR4 [1], the “Ca^2+ Assay” value is “Antagonist” and the Pharmacology entry is “Agonist”.
